In ChEMBL document CHEMBL3877252, “Fluorescein hydrazones: A series of novel non-intercalative topoisomerase IIα catalytic inhibitors induce G1 arrest and apoptosis in breast and colon cancer cells” (Eur J Med Chem, 2017):

Columns and labels:
[1] = Antiproliferative activity against human T47D cells measured after 72 hrs by CCK8 assay; assay type: functional, cell-based
[2] = Antiproliferative activity against human DU145 cells measured after 72 hrs by CCK8 assay; assay type: functional, cell-based; settings: DU-145, 72 h
[3] = Antiproliferative activity against human HCT15 cells measured after 72 hrs by CCK8 assay; assay type: functional, cell-based; settings: HCT-15, 72 h
[4] = Antiproliferative activity against human MCF7 cells measured after 72 hrs by CCK8 assay; assay type: functional, cell-based; settings: MCF7, 72 h
[5] = target: DNA topoisomerase 2-alpha (Homo sapiens) (UniProt P11388); test: Poison activity at topoisomerase-2 alpha in human HCT15 cells assessed as DNA damage by measuring DNA tail length at 5 uM measured after 24 hrs by alkaline comet assay; assay type: cell-based; settings: HCT-15
DNA topoisomerase 2-alpha (Homo sapiens), sequence (P11388 whole entry): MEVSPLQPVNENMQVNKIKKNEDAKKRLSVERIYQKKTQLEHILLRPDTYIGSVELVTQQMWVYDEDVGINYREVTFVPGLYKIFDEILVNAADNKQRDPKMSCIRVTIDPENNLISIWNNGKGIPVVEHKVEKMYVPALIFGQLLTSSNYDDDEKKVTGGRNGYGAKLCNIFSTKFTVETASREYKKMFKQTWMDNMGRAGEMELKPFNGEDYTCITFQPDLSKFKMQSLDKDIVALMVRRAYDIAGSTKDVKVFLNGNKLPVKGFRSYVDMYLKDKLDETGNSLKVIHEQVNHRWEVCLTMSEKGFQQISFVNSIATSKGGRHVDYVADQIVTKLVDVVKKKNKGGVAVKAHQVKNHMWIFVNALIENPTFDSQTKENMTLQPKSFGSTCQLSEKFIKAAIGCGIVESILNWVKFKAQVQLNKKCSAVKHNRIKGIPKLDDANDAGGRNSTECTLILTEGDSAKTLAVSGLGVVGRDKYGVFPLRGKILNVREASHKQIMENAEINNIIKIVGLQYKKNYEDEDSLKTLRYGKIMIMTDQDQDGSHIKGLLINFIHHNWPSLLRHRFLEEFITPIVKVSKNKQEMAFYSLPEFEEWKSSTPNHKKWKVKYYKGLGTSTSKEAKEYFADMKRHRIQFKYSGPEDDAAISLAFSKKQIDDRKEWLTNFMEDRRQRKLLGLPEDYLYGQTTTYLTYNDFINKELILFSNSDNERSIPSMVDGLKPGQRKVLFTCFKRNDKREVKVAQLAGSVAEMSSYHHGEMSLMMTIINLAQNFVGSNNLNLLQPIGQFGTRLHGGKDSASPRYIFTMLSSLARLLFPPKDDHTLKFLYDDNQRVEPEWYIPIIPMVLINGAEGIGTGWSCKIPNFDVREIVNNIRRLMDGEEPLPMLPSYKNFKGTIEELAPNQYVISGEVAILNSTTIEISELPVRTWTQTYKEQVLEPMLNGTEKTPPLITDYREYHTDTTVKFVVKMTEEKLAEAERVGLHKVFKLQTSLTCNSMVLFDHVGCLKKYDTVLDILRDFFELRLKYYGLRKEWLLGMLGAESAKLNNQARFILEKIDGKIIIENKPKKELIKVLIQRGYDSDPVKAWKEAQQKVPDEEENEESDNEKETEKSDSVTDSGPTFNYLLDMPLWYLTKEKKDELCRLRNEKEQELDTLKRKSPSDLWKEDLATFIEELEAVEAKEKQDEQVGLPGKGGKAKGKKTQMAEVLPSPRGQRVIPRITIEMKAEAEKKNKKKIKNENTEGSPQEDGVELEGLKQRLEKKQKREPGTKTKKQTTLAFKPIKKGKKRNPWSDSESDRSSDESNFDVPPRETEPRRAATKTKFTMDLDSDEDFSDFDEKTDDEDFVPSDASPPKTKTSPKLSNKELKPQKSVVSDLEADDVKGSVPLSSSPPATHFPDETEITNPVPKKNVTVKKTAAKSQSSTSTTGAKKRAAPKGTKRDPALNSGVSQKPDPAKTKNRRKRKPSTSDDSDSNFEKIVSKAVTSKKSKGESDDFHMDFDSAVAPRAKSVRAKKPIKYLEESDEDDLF

[6] = target: DNA topoisomerase 2-alpha (Homo sapiens) (UniProt P11388); test: Poison activity at topoisomerase-2 alpha in human HCT15 cells assessed as DNA damage by measuring DNA tail length at 10 uM measured after 24 hrs by alkaline comet assay; assay type: cell-based; settings: HCT-15
[7] = target: DNA topoisomerase 2-alpha (Homo sapiens) (UniProt P11388); test: Poison activity at topoisomerase-2 alpha in human T47D cells assessed as DNA damage by measuring DNA tail length at 5 uM measured after 24 hrs by alkaline comet assay; assay type: cell-based
[8] = target: DNA topoisomerase 2-alpha (Homo sapiens) (UniProt P11388); test: Poison activity at topoisomerase-2 alpha in human T47D cells assessed as DNA damage by measuring DNA tail length at 10 uM measured after 24 hrs by alkaline comet assay; assay type: cell-based
[9] = Cell cycle arrest in human HCT15 cells assessed as accumulation at G2/M phase after 20 hrs by DAPI staining-based cell analyzer; assay type: functional; settings: HCT-15
[10] = Cell cycle arrest in human T47D cells assessed as accumulation at G2/M phase after 24 hrs by DAPI staining-based cell analyzer; assay type: functional
[11] = Cell cycle arrest in human HCT15 cells assessed as accumulation at G1 phase at 1 uM after 20 hrs by DAPI staining-based cell analyzer (reference value: 40%); assay type: functional; settings: HCT-15
[12] = Cell cycle arrest in human HCT15 cells assessed as accumulation at S phase at 1 uM after 20 hrs by DAPI staining-based cell analyzer (reference value: 34%); assay type: functional; settings: HCT-15
[13] = Cell cycle arrest in human HCT15 cells assessed as accumulation at G2/M phase at 1 uM after 20 hrs by DAPI staining-based cell analyzer (reference value: 13%); assay type: functional; settings: HCT-15
[14] = Cell cycle arrest in human HCT15 cells assessed as accumulation at G1 phase at 0.5 uM after 20 hrs by DAPI staining-based cell analyzer (reference value: 40%); assay type: functional; settings: HCT-15
[15] = Cell cycle arrest in human HCT15 cells assessed as accumulation at S phase at 0.5 uM after 20 hrs by DAPI staining-based cell analyzer (reference value: 34%); assay type: functional; settings: HCT-15
[16] = Cell cycle arrest in human HCT15 cells assessed as accumulation at G2/M phase at 0.5 uM after 20 hrs by DAPI staining-based cell analyzer (reference value: 13%); assay type: functional; settings: HCT-15
[17] = Cell cycle arrest in human T47D cells assessed as accumulation at G1 phase at 1 uM after 24 hrs by DAPI staining-based cell analyzer (reference value: 51%); assay type: functional
[18] = Cell cycle arrest in human T47D cells assessed as accumulation at S phase at 1 uM after 24 hrs by DAPI staining-based cell analyzer (reference value: 26%); assay type: functional
[19] = Cell cycle arrest in human T47D cells assessed as accumulation at G2/M phase at 1 uM after 24 hrs by DAPI staining-based cell analyzer (reference value: 15%); assay type: functional
[20] = Cell cycle arrest in human T47D cells assessed as accumulation at G1 phase at 0.5 uM after 24 hrs by DAPI staining-based cell analyzer (reference value: 51%); assay type: functional
[21] = Cell cycle arrest in human T47D cells assessed as accumulation at S phase at 0.5 uM after 24 hrs by DAPI staining-based cell analyzer (reference value: 26%); assay type: functional
[22] = Cell cycle arrest in human T47D cells assessed as accumulation at G2/M phase at 0.5 uM after 24 hrs by DAPI staining-based cell analyzer (reference value: 13%); assay type: functional

Q: Which results are given for COc1cc([C@@H]2c3cc4c(cc3[C@@H](O[C@@H]3O[C@@H]5CO[C@@H](C)O[C@H]5[C@H](O)[C@H]3O)[C@H]3COC(=O)[C@H]23)OCO4)cc(OC)c1O [ETOPOSIDE]?
A: IC50 [1]: 4.85 µM; IC50 [2]: 2.19 µM; IC50 [3]: 1.27 µM; IC50 [4]: 35.6 µM; Activity [5]: 37.5 pixel; Activity [6]: 46.3 pixel; Activity [7]: 62.7 pixel; Activity [8]: 66.2 pixel; Activity [9]: Dose-dependent effect; Activity [10]: Dose-dependent effect; Activity [11]: 17%; Activity [12]: 25%; Activity [13]: 32%; Activity [14]: 21%; Activity [15]: 26%; Activity [16]: 29%; Activity [17]: 35%; Activity [18]: 22%; Activity [19]: 33%; Activity [20]: 39%; Activity [21]: 24%; Activity [22]: 31%
